This is an account of results in patent US11008308B2, “Quinazolinones as PARP14 inhibitors” (Ribon Therapeutics Inc., priority 2017, dated 2021).

Structures are written as SMILES. Counter-ions that a name gives are not always drawn.

Assay [1] has as its target catalytic domain of human PARP14 (Homo sapiens (Human), UniProt Q460N5). Briefly: Enzymatic assay for inhibition of PARP14 (DELFIA, auto-modification by biotin-NAD). It is filed as biochemical. The conditions noted are these: 50 nM PARP14, 3 μM biotin-NAD. As to the method:
An N-terminal His-TEV fusion tag was used to purify the protein from cell lysates. The His-TEV tag was left on the protein for use in the enzymatic assay.
Enzymatic inhibition of PARP14 was measured using a dissociation-enhanced lanthanide fluorescence immunoassay (DELFIA) monitoring the auto-modification of PARP14 by biotinylated nicotinamide adenine dinucleotide (biotin-NAD). 1 μL of a dose response curve of each test compound was spotted in 384-well nickel-coated white microplates (Thermo) using a Mosquito (TTP Labtech). Reactions were performed in a 50 μL volume by adding 40 μL of PARP14 in assay buffer (20 mM HEPES pH==8, 100 mM NaCl, 0.1% bovine serum albumin, 2 mM DTT and 0.002%0 Tween20), incubating with test compound at 25° C. for 30 min, then adding 10 μL of biotin-NAD (Biolog). The final concentrations of PARP14 and biotin-NAD are 50 nM and 3 μM, respectively. Reactions proceeded at 25° C. for 3 h, then were quenched with 5 μL of 10 mM unmodified nicotinamide adenine dinucleotide (Sigma-Aldrich). […] After a 5 min incubation the plate was read on an Envision platereader equipped with a LANCE/DELFIA top mirror (Perkin Elmer) using excitation of 340 nm and emission of 615 nm to measure the amount of Europium present in each well, informing on the amount of biotin-NAD that was transferred in the automodification reaction. […]

The subject of the next assay is LL/2 cells. Put plainly: Tumor growth and survival in LL/2 murine syngeneic model. The format is in vivo, mouse (C57BL/6). As to conditions: LL/2 subcutaneous, female C57BL/6 mice, 500 mg/kg PO BID, study terminated on D21. From the text: For the LL/2 study (FIGS. 4A-4C), female C57BL/6 mice were inoculated subcutaneously in the right flank with 5×10^5 LL/2 cells (ATCC, CRL-1642™) for tumor development. Five days after tumor inoculation, 16 mice with tumor size ranging from 37-72 mm^3 (average tumor size 51 mm^3) were selected and assigned into 2 groups using stratified randomization with 8 mice in each group based upon their tumor volumes. The treatments were started from the next day post randomization (defined as randomization day DO) and were treated with vehicle (0.5% methylcellulose+0.2% Tween 80), or the compound of Example 235 (500 mg/kg PO BID*21 days). The tumor sizes were measured three times per week during the treatment. The entire study was terminated on D21.
Statistical significance, calculated using 2 way ANOVA multiple comparisons in which each treatment group was compared to vehicle control, is indicated by an asterisk. Statistics were performed on groups with less than 20% animal loss (D20 for 4T1, D17 for LL/2). Survival benefit was determined for the LL/2 study (FIG. 4B). Individual mice were euthanized once they reached the termination endpoint (TV>2000 mm3). The time from treatment initiation to termination was deemed as its survival time and plotted in a Kaplan-Meier survival curve format. Mice remaining at study end date of 21 days were euthanized at day 21 after treatment initiation. […]

A further assay deals with 4T1 cells. Put plainly: Tumor growth in 4T1 murine syngeneic model. The format is in vivo, mouse (BALB/c). As to conditions: 4T1 orthotopic, female BALB/c mice, 500 mg/kg PO BID, study terminated on D20. An excerpt: FIGS. 3A and 4A illustrate that a PARP14 inhibitor (Example 235) reduces tumor growth in the murine syngeneic models (A) 4T1 and (B) LL/2. For the 4T1 study (FIGS. 3A and 3B), female BALB/c mice were inoculated orthotopically in the mammary fat pad with 1×10^5 4T1 cells (ATCC, CRL-2539™) for tumor development. Seven days after tumor inoculation, 16 mice with tumor size ranging from 41-78 mm^3 (average tumor size 56 mm^3) were selected and assigned into 2 groups using stratified randomization with 8 mice in each group based upon their tumor volumes. The treatments were started from the next day post randomization (defined as randomization day DO) and were treated with vehicle (0.5% methylcellulose+0.2% Tween 80), or the compound of Example 235 (500 mg/kg PO BID*21 days). The tumor sizes were measured three times per week during the treatment. The entire study was terminated on D20.
Statistical significance, calculated using 2 way ANOVA multiple comparisons in which each treatment group was compared to vehicle control, is indicated by an asterisk. Statistics were performed on groups with less than 20% animal loss (D20 for 4T1, D17 for LL/2). Survival benefit was determined for the LL/2 study (FIG. 4B). Individual mice were euthanized once they reached the termination endpoint (TV>2000 mm3). […]

Sequence of catalytic domain of human PARP14 (Q460N5 1611-1801): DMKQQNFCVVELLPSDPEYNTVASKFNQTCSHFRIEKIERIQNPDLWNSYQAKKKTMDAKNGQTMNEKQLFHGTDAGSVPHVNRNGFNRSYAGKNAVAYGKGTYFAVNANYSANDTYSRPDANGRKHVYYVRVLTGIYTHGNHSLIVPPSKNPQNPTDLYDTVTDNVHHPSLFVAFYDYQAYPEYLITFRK

With `O=c1[nH]c(CSC2CCOCC2)nc2cc(N[C@H]3CCC[C@@H]3F)cc(F)c12` (racemic) [Example 305], the IC50 in assay [1] is less than 1 µM.
`Cc1cccc2c(=O)[nH]c(CS[C@@H]3CCC[C@H](CN(C)C)C3)nc12` (relative stereo) [Example 72, 2-((((cis)-3-((Dimethylamino)methyl)cyclohexyl)thio)methyl)-8-methyl quinazolin-4(3H)-one Trifluoroacetate] returned an IC50 in assay [1] of more than 10 µM.
Regarding `O=c1[nH]c(CS[C@H]2CC[C@H](O)CC2)nc2cc(OCC3CC3)cc(F)c12` [Example 235, 7-(Cyclopropylmethoxy)-5-fluoro-2-(((trans-4-hydroxycyclohexyl)thio)methyl)quinazolin-4(3H)-one], the “Tumor growth inhibition versus vehicle group” value with LL/2 cells was found to be 63%; in the assay on 4T1 cells, 31%.
